According to patent US20250049727A1, “COMPOSITIONS FOR THE DELIVERY OF PAYLOAD MOLECULES TO AIRWAY EPITHELIUM” (ModernaTX, Inc., priority 2021, published 2025):
Where a name gives a salt, the structure may show the parent alone.

Assay: Nanoparticle zeta potential (Malvern Zetasizer Nano ZS)
Assay type: physicochemical
Conditions: LNP with sterol amine, core LNP Compound 18, DSPC, Cholesterol, and DMG-PEG 2K, [mRNA] 0.01 mg/mL in 0.1×PBS
Experimental: LNPs were prepared according to Example 2. Zeta potential was measured by diluting LNPs to [mRNA] 0.01 mg/mL in 0.1×PBS on a Malvern Zetasizer (Nano ZS).

Row | SMILES | Zeta Potential (β-sitosterol) [mV] | Zeta Potential [mV]
1 | CC(C)CCC[C@@H](C)[C@H]1CC[C@H]2[C@@H]3CC=C4C[C@@H](OC(=O)NCCNC(=N)N)CC[C@]4(C)[C@H]3CC[C@]12C [SA23, (3S,8S,9S,10R,13R,14S,17R)-10,13-dimethyl-17-((R)-6-methylheptan-2-yl)-2,3,4,7,8,9,10,11,12,13,14,15,16,17-tetradecahydro-1H-cyclopenta[a]phenanthren-3-yl (2-guanidinoethyl)carbamate, hydrochloride salt] | 12.7 | –
2 | CC(C)CCC[C@@H](C)[C@H]1CC[C@H]2[C@@H]3CC=C4C[C@@H](OC(=O)N(CCCN)CCCCN)CC[C@]4(C)[C@H]3CC[C@]12C [SA29, (3S,8S,9S,10R,13R,14S,17R)-10,13-Dimethyl-17-((R)-6-methylheptan-2-yl)-2,3,4,7,8,9,10,11,12,13,14,15,16,17-tetradecahydro-1H-cyclopenta[a]phenanthren-3-yl (4-aminobutyl)(3-aminopropyl)carbamate dihydrochloride] | 8.3 | –
3 | CC(C)CCC[C@@H](C)[C@H]1CC[C@H]2[C@@H]3CC=C4C[C@@H](OC(=O)N(CCCN)CCCCNCCCN)CC[C@]4(C)[C@H]3CC[C@]12C [SA3, (3S,8S,9S,10R,13R,14S,17R)-10,13-dimethyl-17-((R)-6-methylheptan-2-yl)-2,3,4,7,8,9,10,11,12,13,14,15,16,17-tetradecahydro-1H-cyclopenta[a]phenanthren-3-yl (3-aminopropyl)(4-((3-aminopropyl)amino)butyl)carbamate, trihydrochloride salt] | – | 10.6
4 | CC(C)CCC[C@@H](C)[C@H]1CC[C@H]2[C@@H]3CC=C4C[C@@H](OC(=O)CCC(=O)N(CCCN)CCCCN)CC[C@]4(C)[C@H]3CC[C@]12C [SA31, (3S,8S,9S,10R,13R,14S,17R)-10,13-Dimethyl-17-((R)-6-methylheptan-2-yl)-2,3,4,7,8,9,10,11,12,13,14,15,16,17-tetradecahydro-1H-cyclopenta[a]phenanthren-3-yl 4-((4-aminobutyl)(3-aminopropyl)amino)-4-oxobutanoate dihydrochloride] | 8.6 | –
5 | CC(C)CCC[C@@H](C)[C@H]1CC[C@H]2[C@@H]3CC=C4C[C@@H](OC(=O)NCCCNCCCCN)CC[C@]4(C)[C@H]3CC[C@]12C [SA30, (3S,8S,9S,10R,13R,14S,17R)-10,13-Dimethyl-17-((R)-6-methylheptan-2-yl)-2,3,4,7,8,9,10,11,12,13,14,15,16,17-tetradecahydro-1H-cyclopenta[a]phenanthren-3-yl (3-((4-aminobutyl)amino)propyl)carbamate dihydrochloride] | 8.7 | –
